Literature values in patent publication US20080311191A1, “Multi-Layer Tablets and Bioadhesive Dosage Forms” (priority 2004, published 2008).
Like-named read-outs stand apart in the source and are kept apart here.

Tests used:
[1] = not given; remark: listed apart in the source

water solubility | GI permeability [1] | water solubility [1] | solubility in water at pH<3.5 ([1]; pH<3.5) | Compound
moderate | – | – | – | Nc1nc2c(ncn2COCCO)c(=O)[nH]1 [Acyclovir, acyclovir]
– | good | negligible | slightly soluble | CCC(C)n1ncn(-c2ccc(N3CCN(c4ccc(OCC5COC(Cn6cncn6)(c6ccc(Cl)cc6Cl)O5)cc4)CC3)cc2)c1=O (stereo not shown) [Itraconazole, itraconazole]
